Each structure is given as a SMILES string. pIC50: −log10 of the molar value.

In the first assay the test system is human primary T-cells, IL-2 stimulated proliferation (JAK-1 and JAK-3 dependent; reported as JAK3 activity). Put plainly: Human primary T-cell proliferation stimulated by IL-2 (Example 3). As to conditions: Homo sapiens, T-cell, tested under conditions described in Example 3 (IL-2 stimulated human primary T-cell proliferation); read-out: ability to inhibit JAK3 activity, IC50 range (Table V). Type of assay: cell-based. A digest of the protocol: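 Peripheral-blood human T-cells pre-activated via TCR/CD28, IL-2-starved overnight, then cultured 72 h at 37 °C with compound in Yssel's medium containing IL-2 (80 U/mL in cell suspension). Proliferation read as viable-cell ATP by CellTiter-Glo luminescence; reduction versus control taken as JAK pathway inhibition.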
As to `Cc1cnc(Nc2cncc(Br)c2)nc1Nc1ccc2oc(=O)[nH]c2c1` [II-77, 5-(2-(5-bromopyridin-3-ylamino)-5-methylpyrimidin-4-ylamino)benzo[d]oxazol-2(3H)-one], the pIC50 (usually the IC50 on a negative log10 scale, so that one unit is a factor of ten) is 5.30 to 6.30.

For the compound `Cc1cnc(Nc2ccc(F)c(-c3cccnc3)c2)nc1Nc1ccc2oc(=O)[nH]c2c1` [Compound I-472, 5-(2-(4-fluoro-3-(pyridin-3-yl)phenylamino)-5-methylpyrimidin-4-ylamino)benzo[d]oxazol-2(3H)-one], the pIC50 is more than 6.30.

With `Cc1cnc(Nc2cccc(S(N)(=O)=O)c2)nc1Nc1cc(C)c2oc(=O)[nH]c2c1` [Compound I-243, 3-(5-methyl-4-(7-methyl-2-oxo-2,3-dihydrobenzo[d]oxazol-5-ylamino)pyrimidin-2-ylamino)benzenesulfonamide], the pIC50 is more than 6.30.

In the case of `Cc1cnc(Nc2ccc(F)c(S(C)(=O)=O)c2)nc1Nc1ccc2oc(=O)[nH]c2c1` [Compound I-242, 5-(2-(4-fluoro-3-(methylsulfonyl)phenylamino)-5-methylpyrimidin-4-ylamino)benzo[d]oxazol-2(3H)-one], the negative-log IC50 (pIC50) was more than 6.30.

Take `Cc1cnc(Nc2ccc(N3CCN(C(=O)C(F)(F)F)[C@H](C)C3)nc2)nc1Nc1ccc2oc(=O)[nH]c2c1` [II-57, (R)-5-(5-methyl-2-(6-(3-methyl-4-(2,2,2-trifluoroacetyl)piperazin-1-yl)pyridin-3-ylamino)pyrimidin-4-ylamino)benzo[d]oxazol-2(3H)-one]: the pIC50 is more than 6.30.

Take `Cc1cnc(Nc2ccc(C(C)N3CCCC3)cc2)nc1Nc1ccc2oc(=O)[nH]c2c1` (stereo not drawn) [Compound I-203, 5-(5-methyl-2-(4-(1-(pyrrolidin-1-yl)ethyl)phenylamino)pyrimidin-4-ylamino)benzo[d]oxazol-2(3H)-one]: the negative logarithm of the IC50 (pIC50) was more than 6.30.

On to `CCN1CC2CN(c3ncc(Nc4ncc(C)c(Nc5ccc6oc(=O)[nH]c6c5)n4)cc3Cl)CC2C1` (stereo not drawn) [II-118, N2-[3-chloro-2-(3-ethyl-3,7-diazabicyclo[3.3.0]octan-7-yl)pyridin-5-yl]-5-methyl-N4-(2-oxo-2,3-dihydro-1,3-benzoxazol-5-yl)-2,4-pyrimidinediamine], for which the pIC50 was more than 6.30.

On to `Cc1cc(Nc2ncc(C)c(Nc3ccc4oc(=O)[nH]c4c3)n2)ccc1N1CC2(C)CN(C)CC(C)(C1)C2` [Compound I-5, N4-(benzo[d]oxazol-2(3H)-on-5-yl)-N2-(3-methyl-4-(1,5,7-trimethyl-3,7-diazabicyclo[3.3.1]nonan-3-yl)phenyl)-5-methylpyrimidine-2,4-diamine], for which the pIC50 was 5.30 to 6.30.

`Cc1cnc(Nc2ccc(S(C)(=O)=O)nc2)nc1Nc1ccc2oc(=O)[nH]c2c1` [II-43, 5-[2-(6-Methanesulfonyl-pyridin-3-ylamino)-5-methyl-pyrimidin-4-ylamino]-3H-benzooxazol-2-one]: the negative logarithm of the IC50 (pIC50) was more than 6.30.

As to `Cc1ccc(Nc2ncc(C)c(Nc3ccc4oc(=O)[nH]c4c3)n2)cc1S(C)(=O)=O` [Compound I-239, 5-(5-methyl-2-(4-methyl-3-(methylsulfonyl)phenylamino)pyrimidin-4-ylamino)benzo[d]oxazol-2(3H)-one], the pIC50 was more than 6.30.

With `Cc1cnc(Nc2ccc(N3CCN(C)[C@H](C)C3)nc2)nc1Nc1ccc2oc(=O)[nH]c2c1` [II-55, (R)-5-(2-(6-(3,4-dimethylpiperazin-1-yl)pyridin-3-ylamino)-5-methylpyrimidin-4-ylamino)benzo[d]oxazol-2(3H)-one], the pIC50 is more than 6.30.

For `Cc1cnc(Nc2ccccc2)nc1Nc1ccc2oc(=O)[nH]c2c1` [Compound I-174, 5-(5-Methyl-2-phenylamino-pyrimidin-4-ylamino)-3H-benzooxazol-2-one], the pIC50 is more than 6.30.

Turning to `Cc1cnc(Nc2cccc(C(C)N3CCC3)c2)nc1Nc1ccc2oc(=O)[nH]c2c1` (stereo not drawn) [Compound I-211, 5-(2-(3-(1-(azetidin-1-yl)ethyl)phenylamino)-5-methylpyrimidin-4-ylamino)benzo[d]oxazol-2(3H)-one], the pIC50 was more than 6.30.

Regarding `Cc1cnc(Nc2c(C)cccc2F)nc1Nc1ccc2oc(=O)[nH]c2c1` [IV-62, 5-(2-(2-fluoro-6-methylphenylamino)-5-methylpyrimidin-4-ylamino)benzo[d]oxazol-2(3H)-one], the negative-log IC50 (pIC50) is 5.30 to 6.30.

Turning to `Cc1cnc(Nc2ccc(OCC3CCC3)cc2)nc1Nc1ccc2oc(=O)[nH]c2c1` [Compound I-195, 5-[2-(4-Cyclobutylmethoxy-phenylamino)-5-methyl-pyrimidin-4-ylamino]-3H-benzooxazol-2-one], the negative-log IC50 (pIC50) is more than 6.30.

Staying with this assay, now noted: tested under conditions described in Example 3 (IL-2 stimulated human primary T-cell proliferation); read-out: ability to inhibit JAK3 activity, IC50 range (Table V).
As for `Cc1ccc(Nc2ncc(C)c(Nc3ccc4oc(=O)n(C)c4c3)n2)cc1NS(C)(=O)=O` [Compound I-82, N2-((3-methylsulfonylamino-4-methyl)phenyl)-N4-(3-methyl-2-oxo-2,3-dihydrobenzo[d]oxazol-5-yl)-5-methylpyrimidine-2,4-diamine], the pIC50 was more than 6.30.

Consider `Cc1cnc(Nc2ccc(S(N)(=O)=O)cc2)nc1Nc1ccc2[nH]c(=O)[nH]c2c1` [Compound I-12, N4-(benzimidazolin-2-on-5-yl)-N2-((4-aminosulfonyl)phenyl)-5-methylpyrimidine-2,4-diamine], for which the negative logarithm of the IC50 (pIC50) is less than 5.00.

Take `Cc1cnc(Nc2cc(F)c(OC(F)F)c(F)c2)nc1Nc1ccc2oc(=O)[nH]c2c1` [Compound I-388, N2-(3,5-difluoro-4-difluoromethoxy)phenyl-5-methyl-N4-(2-oxo-2,3-dihydro-1,3-benzoxazol-5-yl)-2,4-pyrimidinediamine]: the pIC50 was more than 6.30.

For the compound `Cc1cnc(Nc2ccc(Cl)c(F)c2)nc1Nc1ccc2oc(=O)[nH]c2c1` [Compound I-400, N2-(4-chloro-3-fluoro)phenyl-5-methyl-N4-(2-oxo-2,3-dihydro-1,3-benzoxazol-5-yl)-2,4-pyrimidinediamine], the pIC50 was more than 6.30.

Take `Cc1cnc(Nc2ccc(OC(C)(C)C#N)cc2)nc1Nc1ccc2oc(=O)[nH]c2c1` [Compound I-334, N2-[4-(1-cyano-1-methyl)ethoxy]phenyl-5-methyl-N4-(2-oxo-2,3-dihydro-1,3-benzoxazol-5-yl)-2,4-pyrimidinediamine]: the pIC50 was more than 6.30.

Turning to `Cc1ccc(Nc2ncc(F)c(Nc3ccc4oc(=O)[nH]c4c3)n2)cc1NS(C)(=O)=O` [Compound I-84, N2-((3-methylsulfonylamino-4-methyl)phenyl)-N4-(2-oxo-2,3-dihydrobenzo[d]oxazol-5-yl)-5-fluoropyrimidine-2,4-diamine], the pIC50 was more than 6.30.

For `Cc1cnc(Nc2cccc(OCC(=O)N(C)C)c2)nc1Nc1ccc2oc(=O)[nH]c2c1` [Compound I-326, N2-(3-dimethylaminocarbonylmethoxy)phenyl-5-methyl-N4-(2-oxo-2,3-dihydro-1,3-benzoxazol-5-yl)-2,4-pyrimidinediamine], the negative logarithm of the IC50 (pIC50) was more than 6.30.

With `Cn1c(=O)oc2cc(Nc3nc(Nc4cccc(NS(C)(=O)=O)c4)ncc3F)ccc21` [Compound I-61, N2-((3-methylsulfonylamino)phenyl)-N4-(3-methyl-2-oxo-2,3-dihydrobenzo[d]oxazol-6-yl)-5-fluoropyrimidine-2,4-diamine], the pIC50 was more than 6.30.

As to `Cc1cnc(Nc2cc(F)cc(C(F)(F)F)c2)nc1Nc1ccc2oc(=O)[nH]c2c1` [Compound I-360, N2-(3-fluoro-5-trifluoromethyl)phenyl-5-methyl-N4-(2-oxo-2,3-dihydro-1,3-benzoxazol-5-yl)-2,4-pyrimidinediamine], the pIC50 was more than 6.30.

(Values after US10005767B2, “Compositions and methods for inhibition of the JAK pathway” (Rigel Pharmaceuticals, Inc., priority 2009, dated 2018).)
